“Also recorded” adds a separate entry of the source.
Assays:
[1] = system: mouse neuroblastoma (N2a) cells; test: Immunoblotting analysis of mitochondrial dynamics, biogenesis and synaptic proteins; assay type: cell-based
Protocol: (§1) Tissue culture: The N2a cells were grown for 3 days in a serum-free medium (1:1 mixture of DMEM and OptiMEM, plus penicillin and streptomycin [Invitrogen, Carlsbad, Calif., USA]) until the cells developed neuronal processes.
[…] of protein was resolved from each group of cells on a 4-12% Nu-PAGE gel (Invitrogen). The resolved proteins were transferred to […] (Novax Inc., San Diego, Calif., USA) and were then incubated for 1 hour at room temperature with a blocking buffer (5% dry milk dissolved in a TBST buffer). The PVDF membranes were incubated overnight with primary antibodies (see Table 2) and washed 3 times with a TBST buffer at 10-minute intervals. They were then incubated for 2 hours with appropriate secondary antibodies, followed by 3 additional washes at 10-minute intervals. Mitochondrial and synaptic proteins were detected with cheminilumniscence reagents (Pierce Biotechnology, Rockford, Ill., USA), and the bands from immunoblots were quantified on a Kodak scanner, following manufacturer's instructions (ID Image Analysis Software, Kodak Digital Science, Kennesaw, Ga., USA), and the gel images were analyzed from gel images captured with a Kodak digital science CD camera. The lanes were marked to define the positions and specific regions of the bands. An ID fine-band command was used to locate and to scan the bands in each lane and to record the readings.

N2a cells = test: Soluble Aβ42 levels by sandwich ELISA; assay type: cell-based, mouse; details: vs N2a cells treated only with Aβ42
Protocol: as §1
Briefly, protein lysates from untreated control N2a cells and lysates from 4 treatment groups were homogenized in a Tris-buffered saline (pH 8.0) containing protease inhibitors ([…] pepstatin A, aprotinin, phophsoramidon, and leupeptin; 0.5 mM phenylmethanesulfonyl fluoride and 1 mM ethyleneglycol-bis(flaminoethyl ether)-NN tetraacetic acid). Samples were sonicated briefly and centrifuged at 10,000 g for 20 min at 4° C. The soluble fraction was used to determine the soluble Aβ by ELISA. For each sample, Aβ1-40 and Aβ1-42 were measured with commercial colorimetric ELISA kits (Biosource International, Camarillo, Calif., USA) that were specific for each species. A 96-well plate reader was used, following the manufacturer's instructions. Each sample was run in duplicate. Protein concentrations of the homogenates were determined following the […], and Aβ was expressed as pg Aβ/mg protein.

[2] = Aβ42 6 hrs then Mdivi1 24 hrs (Aβ42+Mdivi1), vs Aβ42 treated cells
[3] = Aβ42 6 hrs then Mdivi1 24 hrs (Aβ42+Mdivi1), vs untreated N2a cells
[4] = Mdivi1 24 hrs or Aβ42 20 μM 6 hrs alone, vs untreated N2a cells
[5] = Mdivi1 24 hrs then Aβ42 6 hrs (Mdivi1+Aβ42), vs Aβ42 treated cells
[6] = Mdivi1 24 hrs then Aβ42 6 hrs (Mdivi1+Aβ42), vs untreated N2a cells

**Q.** Which results are given for `COc1cc(-n2c(S)nc3ccccc3c2=O)c(Cl)cc1Cl` [Mdivi1, 3-(2,4-Dichloro-5-methoxyphenyl)-2,3-dihydro-2-thioxo-4(1H)-quinazolinone]?
**A.** Drp1 protein level [1, 2]: significantly lower; Fis1 protein level [1, 2]: significantly lower; Mfn1 protein level [1, 2]: significantly higher; Mfn2 protein level [1, 2]: significantly higher; Nrf1 protein level [1, 2]: significantly higher; Opa1 protein level [1, 2]: significantly higher; PGC1α protein level [1, 2]: significantly higher; PSD95 protein level [1, 2]: significantly higher; Synaptophysin protein level [1, 2]: significantly higher; TFAM protein level [1, 2]: significantly higher; Drp1 protein level [1, 3]: Unchanged; Fis1 protein level [1, 3]: Unchanged; Drp1 protein level [1, 4]: significantly lower; Fis1 protein level [1, 4]: significantly lower; Mfn1 protein level [1, 4]: significantly higher; Mfn2 protein level [1, 4]: significantly higher; Nrf2 protein level [1, 4]: significantly higher; Opa1 protein level [1, 4]: significantly higher; PGC1α protein level [1, 4]: significantly higher; TFAM protein level [1, 4]: significantly higher; Drp1 protein level [1, 5]: significantly lower; Fis1 protein level [1, 5]: significantly lower; Mfn1 protein level [1, 5]: significantly higher; Mfn2 protein level [1, 5]: significantly higher; Nrf1 protein level [1, 5]: significantly higher; Nrf2 protein level [1, 5]: significantly higher; Opa1 protein level [1, 5]: significantly higher; PGC1α protein level [1, 5]: significantly higher; PSD95 protein level [1, 5]: significantly higher; Synaptophysin protein level [1, 5]: significantly higher; TFAM protein level [1, 5]: significantly higher; Drp1 protein level [1, 6]: unchanged; Fis1 protein level [1, 6]: unchanged; Aβ42 levels (N2a cells; Aβ42 6 hrs then Mdivi1 24 hrs (Aβ42+Mdivi1, curative)): Significantly reduced; also recorded: significantly lower; Aβ42 levels (N2a cells; Mdivi1 24 hrs then Aβ42 6 hrs (Mdivi1+Aβ42, preventive)): Significantly reduced; also recorded: significantly lower

— US20190307749A1, “Mitochondria-Division Inhibitor 1 Protects Against Amyloid-B Induced Mitochondrial Fragmentation and Synaptic Damage in Alzheimer's Disease” (Texas Tech University System, priority 2018, published 2019)
